This is an account of results in ChEMBL document CHEMBL1140314, “Adamantyl cannabinoids: a novel class of cannabinergic ligands” (J Med Chem, 2005).

For test [1], the target named is Cannabinoid receptor 2 (Mus musculus, UniProt P47936). Briefly: Inhibition of [3H]CP-55940 binding to cannabinoid receptor 2 of mouse spleen membranes. Type of test: tissue-based.
Test [2] deals with Cannabinoid receptor 1 (Rattus norvegicus, UniProt P20272). Briefly: Inhibition of [3H]CP-55940 binding to cannabinoid receptor 1 of rat brain.
Chain of Cannabinoid receptor 1 (P20272 whole entry): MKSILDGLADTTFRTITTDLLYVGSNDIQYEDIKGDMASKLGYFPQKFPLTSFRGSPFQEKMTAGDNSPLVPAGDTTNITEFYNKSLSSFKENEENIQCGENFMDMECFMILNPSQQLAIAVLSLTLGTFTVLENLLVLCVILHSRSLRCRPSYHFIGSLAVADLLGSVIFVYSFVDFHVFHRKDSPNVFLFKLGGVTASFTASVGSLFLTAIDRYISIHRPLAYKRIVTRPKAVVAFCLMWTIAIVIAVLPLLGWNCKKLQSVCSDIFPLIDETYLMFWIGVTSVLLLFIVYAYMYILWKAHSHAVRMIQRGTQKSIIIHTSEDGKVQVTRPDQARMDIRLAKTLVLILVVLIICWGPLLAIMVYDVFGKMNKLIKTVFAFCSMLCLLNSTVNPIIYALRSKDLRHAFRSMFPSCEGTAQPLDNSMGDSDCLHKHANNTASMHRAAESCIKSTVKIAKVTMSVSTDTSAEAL
Test [3] has as its system Rattus norvegicus. Briefly: In vivo cannabinergic activity in rat after 90 min of dose administration (0.03-1.8 mg/kg) using drug discrimination assay. Type of test: functional.
For test [4], the system named is Rattus norvegicus. Briefly: In vivo cannabinergic activity in rat after 30 min of dose administration (0.03-1.8 mg/kg) using drug discrimination assay. The following applies: 0.5 h. Type of test: functional.

Chain of Cannabinoid receptor 2 (P47936 whole entry): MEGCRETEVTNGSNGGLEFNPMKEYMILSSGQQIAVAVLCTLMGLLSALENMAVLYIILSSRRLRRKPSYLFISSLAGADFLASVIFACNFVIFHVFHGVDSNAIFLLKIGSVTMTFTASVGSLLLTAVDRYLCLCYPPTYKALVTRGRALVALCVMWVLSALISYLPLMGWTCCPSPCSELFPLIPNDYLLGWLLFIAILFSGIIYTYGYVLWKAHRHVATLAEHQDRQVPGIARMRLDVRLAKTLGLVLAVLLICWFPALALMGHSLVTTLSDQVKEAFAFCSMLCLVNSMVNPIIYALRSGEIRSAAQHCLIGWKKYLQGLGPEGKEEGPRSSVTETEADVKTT

In the case of `CC1=CC[C@@H]2[C@@H](C1)c1c(O)cc(C=C3C4CC5CC(C4)CC3C5)cc1OC2(C)C`, the Ki (usually the equilibrium dissociation constant of an inhibitor or competing ligand from its target) came to 8.9 nM in test [1] and 48.6 nM in test [2].

`CC1=CC[C@@H]2[C@@H](C1)c1c(O)cc(C3C4CC5CC(C4)CC3C5)cc1OC2(C)C` (stereo partly drawn): the inhibition constant (Ki) in test [1] worked out at 14 nM; in test [2], 34.9 nM.

`CC1=CC[C@@H]2[C@@H](C1)c1c(O)cc(CC3C4CC5CC(C4)CC3C5)cc1OC2(C)C` (stereo partly drawn): the values for the Ki in test [1] and in test [2] were 76 nM and 79.7 nM, respectively.

For the molecule `CC1=CC[C@@H]2[C@@H](C1)c1c(O)cc(C34CC5CC(CC(C5)C3)C4)cc1OC2(C)C`, the Ki in test [1] was found to be 52 nM; in test [2], 6.8 nM. Moreover, the ED50 (as a rule, the midpoint of the dose-response relation) was determined as 0.41 mg/kg in test [3]; 0.44 mg/kg in test [3] (Rattus norvegicus, 1.5 h, read-out: ED50); 0.68 mg/kg in test [4].

Consider `CC1=CC[C@@H]2[C@@H](C1)c1c(O)cc(CC34CC5CC(CC(C5)C3)C4)cc1OC2(C)C`, for which the Ki in test [1] came to 26.9 nM; in test [2] it was 29.3 nM.
